Article PMC3108484 (Frontiers in Pharmacology, 2011)

Key:
Human D1 = Human D1 (Homo sapiens, UniProt P21728); assay: Radioligand binding: Human D1
human Nav1.5 = human Nav1.5 (Homo sapiens, UniProt Q14524); assay: Whole cell voltage-clamp, cardiac sodium current; conditions: 3 μM for 3 min, n = 3 cells
Rat 5-HT1B = Rat 5-HT1B (Rattus norvegicus, UniProt P28564); assay: Radioligand binding: Rat 5-HT1B
Human NK2 = Human NK2 (Homo sapiens, UniProt P21452); assay: Radioligand binding: Human NK2
Human PDE4 = assay: Enzyme inhibition: Human PDE4; conditions: [3H]-cAMP + cAMP 1 μM, TD-8954 1 μM
Human COX2 = Human COX2 (Homo sapiens, UniProt P35354); assay: Enzyme inhibition: Human COX2
SK+Ca channel = assay: Radioligand binding: SK+Ca channel; conditions: [125I]-apamin 0.004 nM
Human 5-HT2C = Human 5-HT2C (Homo sapiens, UniProt P28335); assay: Radioligand binding: Human 5-HT2C
Rat BB (non-selective) = assay: Radioligand binding: Rat BB; conditions: [125I]-[Tyr4]-bombesin 0.01 nM
Human A1 = Human A1 (Homo sapiens, UniProt P30542); assay: Radioligand binding: Human A1
healthy human subjects = assay: Human single ascending dose study, bowel movements; type: in vivo
Human 5-HT5a = Human 5-HT5a (Homo sapiens, UniProt P47898); assay: Radioligand binding: Human 5-HT5a
[1] = target: Rat Ca2+ channel (L, diltiazem site); assay: Radioligand binding: Rat Ca2+ channel; conditions: [3H]-diltiazem 5 nM
Human NK3 = Human NK3 (Homo sapiens, UniProt P29371); assay: Radioligand binding: Human NK3
Rat AMPA = assay: Radioligand binding: Rat AMPA; conditions: [3H]-AMPA 8 nM
Human D4.4 = Human D4.4 (Homo sapiens, UniProt P21917); assay: Radioligand binding: Human D4.4
Bovine 5-HT1D = Bovine 5-HT1D (Bos taurus, UniProt F1MMU1); assay: Radioligand binding: Bovine 5-HT1D
Human M1 = Human M1 (Homo sapiens, UniProt P11229); assay: Radioligand binding: Human M1
Human D2S = Human D2S (Homo sapiens, UniProt P14416); assay: Radioligand binding: Human D2S
[2] = both, human, in vivo, 0.5 mg
Guinea pig H2 = Guinea pig H2 (Cavia porcellus, UniProt P47747); assay: Radioligand binding: Guinea pig H2
Human 5-HT2B = Human 5-HT2B (Homo sapiens, UniProt P41595); assay: Radioligand binding: Human 5-HT2B
[3] = target: Human acetylcholinesterase (Homo sapiens, UniProt P22303); assay: Enzyme inhibition: Human acetylcholinesterase
Human CGRP = Human CGRP (Homo sapiens, UniProt O60894+Q16602); assay: Radioligand binding: Human CGRP
Human V1a = Human V1a (Homo sapiens, UniProt P37288); assay: Radioligand binding: Human V1a
Human VPAC2 (VIP2) = Human VPAC2 (VIP2) (Homo sapiens, UniProt P41587); assay: Radioligand binding: Human VPAC2
Rat P2Y = assay: Radioligand binding: Rat P2Y; conditions: [35S]-dATP αS 10 nM
Rat GABA (non-selective) = assay: Radioligand binding: Rat GABA; conditions: [3H]-GABA 10 nM
Human AT1 = Human AT1 (Homo sapiens, UniProt P30556); assay: Radioligand binding: Human AT1
Human CCK1 (CCKA) = Human CCK1 (CCKA) (Homo sapiens, UniProt P32238); assay: Radioligand binding: Human CCK1
Human β1 = Human β1 (Homo sapiens, UniProt P08588); assay: Radioligand binding: Human β1
Human 5-HT transporter = Human 5-HT transporter (Homo sapiens, UniProt P31645); assay: Radioligand binding: Human 5-HT transporter
conscious guinea pigs = assay: Guinea pig colonic transit of carmine red dye; type: in vivo; conditions: s.c., maximum effect already achieved
rat esophagus = assay: Rat esophageal relaxation; type: in vivo; conditions: cumulative i.d. dosing, anesthetized rats
[4] = read-out: % Inhibition of specific binding (1 μM)
[5] = read-out: % Inhibition of control (1 μM)

Chain of Guinea pig H2 (P47747 whole entry): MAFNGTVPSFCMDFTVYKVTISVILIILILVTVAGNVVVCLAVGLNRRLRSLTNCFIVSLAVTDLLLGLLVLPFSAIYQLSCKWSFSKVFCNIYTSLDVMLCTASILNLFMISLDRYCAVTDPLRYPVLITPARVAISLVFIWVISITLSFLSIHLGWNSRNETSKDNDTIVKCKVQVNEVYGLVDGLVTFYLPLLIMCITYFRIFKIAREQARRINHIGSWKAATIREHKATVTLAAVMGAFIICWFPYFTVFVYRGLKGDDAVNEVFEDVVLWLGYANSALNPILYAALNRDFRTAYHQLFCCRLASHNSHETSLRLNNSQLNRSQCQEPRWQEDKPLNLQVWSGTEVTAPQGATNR
Chain of Human AT1 (P30556 whole entry): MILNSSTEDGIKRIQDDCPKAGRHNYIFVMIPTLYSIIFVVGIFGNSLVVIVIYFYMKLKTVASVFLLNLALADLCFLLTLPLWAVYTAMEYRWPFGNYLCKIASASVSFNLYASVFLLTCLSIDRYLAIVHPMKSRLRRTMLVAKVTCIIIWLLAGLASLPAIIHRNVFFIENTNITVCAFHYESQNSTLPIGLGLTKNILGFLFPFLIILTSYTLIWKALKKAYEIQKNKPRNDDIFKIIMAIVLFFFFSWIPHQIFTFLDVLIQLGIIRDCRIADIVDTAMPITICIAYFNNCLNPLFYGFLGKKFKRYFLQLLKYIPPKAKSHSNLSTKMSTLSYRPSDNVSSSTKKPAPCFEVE
Chain of Human VPAC2 (VIP2) (P41587 24-438): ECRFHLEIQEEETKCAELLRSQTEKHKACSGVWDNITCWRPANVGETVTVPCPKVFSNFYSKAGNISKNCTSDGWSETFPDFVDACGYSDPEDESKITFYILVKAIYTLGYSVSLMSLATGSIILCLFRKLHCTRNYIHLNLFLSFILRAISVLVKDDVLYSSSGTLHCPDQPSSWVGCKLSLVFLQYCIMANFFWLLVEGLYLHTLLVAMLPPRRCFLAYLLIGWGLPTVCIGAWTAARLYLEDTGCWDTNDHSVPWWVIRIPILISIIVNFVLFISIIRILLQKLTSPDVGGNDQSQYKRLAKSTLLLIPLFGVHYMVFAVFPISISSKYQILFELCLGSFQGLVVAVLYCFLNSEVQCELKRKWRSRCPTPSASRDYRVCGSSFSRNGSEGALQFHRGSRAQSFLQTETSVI
Chain of Human D1 (P21728 whole entry): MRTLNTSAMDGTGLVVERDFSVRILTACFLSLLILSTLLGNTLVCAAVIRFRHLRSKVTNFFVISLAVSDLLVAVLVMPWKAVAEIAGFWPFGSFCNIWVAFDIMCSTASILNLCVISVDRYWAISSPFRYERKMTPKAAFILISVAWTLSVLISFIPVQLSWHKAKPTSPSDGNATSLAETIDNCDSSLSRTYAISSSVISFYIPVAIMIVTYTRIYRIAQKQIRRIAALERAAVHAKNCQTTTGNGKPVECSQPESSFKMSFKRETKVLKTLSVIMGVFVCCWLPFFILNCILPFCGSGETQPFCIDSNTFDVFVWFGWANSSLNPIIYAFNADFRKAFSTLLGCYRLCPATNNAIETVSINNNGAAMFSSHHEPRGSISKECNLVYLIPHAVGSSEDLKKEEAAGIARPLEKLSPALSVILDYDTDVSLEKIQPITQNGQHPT
Chain of Human acetylcholinesterase (P22303 32-614): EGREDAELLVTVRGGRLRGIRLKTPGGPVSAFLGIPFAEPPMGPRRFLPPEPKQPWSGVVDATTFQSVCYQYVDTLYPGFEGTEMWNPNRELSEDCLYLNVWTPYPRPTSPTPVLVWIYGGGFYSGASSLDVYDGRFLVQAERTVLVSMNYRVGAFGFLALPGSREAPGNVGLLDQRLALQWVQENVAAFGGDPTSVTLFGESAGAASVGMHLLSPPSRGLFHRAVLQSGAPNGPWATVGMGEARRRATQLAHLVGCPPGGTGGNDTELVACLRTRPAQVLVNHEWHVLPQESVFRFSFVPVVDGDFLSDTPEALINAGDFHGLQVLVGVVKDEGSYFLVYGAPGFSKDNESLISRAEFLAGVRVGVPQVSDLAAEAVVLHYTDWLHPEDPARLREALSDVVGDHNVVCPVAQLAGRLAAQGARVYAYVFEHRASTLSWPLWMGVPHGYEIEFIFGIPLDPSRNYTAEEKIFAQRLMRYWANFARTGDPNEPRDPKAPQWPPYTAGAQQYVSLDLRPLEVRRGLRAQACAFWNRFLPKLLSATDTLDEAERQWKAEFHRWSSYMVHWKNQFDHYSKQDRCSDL
Chain of Human NK3 (P29371 whole entry): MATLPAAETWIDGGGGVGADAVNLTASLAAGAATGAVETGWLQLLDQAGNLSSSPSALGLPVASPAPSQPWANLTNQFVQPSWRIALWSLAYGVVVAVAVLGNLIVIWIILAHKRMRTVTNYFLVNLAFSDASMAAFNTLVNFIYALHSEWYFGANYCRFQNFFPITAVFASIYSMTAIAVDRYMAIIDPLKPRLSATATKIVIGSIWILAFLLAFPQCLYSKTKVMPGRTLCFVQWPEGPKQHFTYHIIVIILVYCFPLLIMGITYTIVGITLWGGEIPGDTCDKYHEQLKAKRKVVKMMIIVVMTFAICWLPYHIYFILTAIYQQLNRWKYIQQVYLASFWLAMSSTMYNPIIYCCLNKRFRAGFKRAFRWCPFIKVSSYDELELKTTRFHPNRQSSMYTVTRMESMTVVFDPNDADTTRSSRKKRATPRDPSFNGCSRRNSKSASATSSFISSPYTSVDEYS
Chain of Human D4.4 (P21917 whole entry): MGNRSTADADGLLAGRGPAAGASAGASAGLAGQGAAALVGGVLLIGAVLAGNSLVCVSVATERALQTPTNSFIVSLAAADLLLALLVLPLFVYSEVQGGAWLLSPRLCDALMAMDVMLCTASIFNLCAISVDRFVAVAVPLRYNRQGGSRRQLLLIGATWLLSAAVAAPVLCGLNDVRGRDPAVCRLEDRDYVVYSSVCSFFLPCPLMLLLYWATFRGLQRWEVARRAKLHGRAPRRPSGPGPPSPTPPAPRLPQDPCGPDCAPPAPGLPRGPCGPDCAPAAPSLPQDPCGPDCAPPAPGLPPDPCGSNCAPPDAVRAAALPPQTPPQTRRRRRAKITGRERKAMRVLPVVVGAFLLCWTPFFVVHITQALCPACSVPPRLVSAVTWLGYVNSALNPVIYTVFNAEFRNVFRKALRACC
Chain of Human V1a (P37288 whole entry): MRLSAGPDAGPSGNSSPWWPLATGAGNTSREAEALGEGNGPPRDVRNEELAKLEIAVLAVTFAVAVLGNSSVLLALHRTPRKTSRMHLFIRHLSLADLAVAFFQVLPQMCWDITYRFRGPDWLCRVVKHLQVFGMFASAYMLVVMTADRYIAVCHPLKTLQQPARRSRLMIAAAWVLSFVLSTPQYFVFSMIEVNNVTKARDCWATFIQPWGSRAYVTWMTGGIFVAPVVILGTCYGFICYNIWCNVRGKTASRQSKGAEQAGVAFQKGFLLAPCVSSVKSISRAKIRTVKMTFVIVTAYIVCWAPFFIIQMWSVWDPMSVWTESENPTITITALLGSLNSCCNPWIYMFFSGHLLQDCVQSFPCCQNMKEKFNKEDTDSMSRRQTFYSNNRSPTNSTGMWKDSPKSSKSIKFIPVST
Chain of Human COX2 (P35354 18-604): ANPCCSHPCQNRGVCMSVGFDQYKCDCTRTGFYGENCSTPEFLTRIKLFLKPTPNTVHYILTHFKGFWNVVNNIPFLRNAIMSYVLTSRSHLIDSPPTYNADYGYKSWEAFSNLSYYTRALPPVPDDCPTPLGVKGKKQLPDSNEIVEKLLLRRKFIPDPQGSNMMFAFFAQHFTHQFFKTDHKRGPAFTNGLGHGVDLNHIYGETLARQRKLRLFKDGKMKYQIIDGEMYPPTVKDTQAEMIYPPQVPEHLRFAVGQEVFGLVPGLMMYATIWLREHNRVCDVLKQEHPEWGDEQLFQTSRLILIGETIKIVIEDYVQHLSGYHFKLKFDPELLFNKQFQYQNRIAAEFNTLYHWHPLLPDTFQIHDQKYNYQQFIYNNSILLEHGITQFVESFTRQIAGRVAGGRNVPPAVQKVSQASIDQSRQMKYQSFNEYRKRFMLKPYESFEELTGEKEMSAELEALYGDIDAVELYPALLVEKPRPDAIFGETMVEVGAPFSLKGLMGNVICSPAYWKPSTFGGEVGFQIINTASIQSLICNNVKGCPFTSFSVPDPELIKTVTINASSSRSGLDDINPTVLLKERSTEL
Chain of Human A1 (P30542 whole entry): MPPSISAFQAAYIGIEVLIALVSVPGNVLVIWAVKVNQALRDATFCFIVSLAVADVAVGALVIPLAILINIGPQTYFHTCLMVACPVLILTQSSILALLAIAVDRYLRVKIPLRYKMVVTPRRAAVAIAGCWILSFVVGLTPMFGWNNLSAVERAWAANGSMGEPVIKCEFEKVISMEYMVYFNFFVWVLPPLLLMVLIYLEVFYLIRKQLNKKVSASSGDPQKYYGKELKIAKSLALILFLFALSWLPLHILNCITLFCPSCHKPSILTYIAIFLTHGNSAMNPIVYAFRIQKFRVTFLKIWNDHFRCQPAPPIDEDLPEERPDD
Chain of Human D2S (P14416 1-414 isoform P14416-2): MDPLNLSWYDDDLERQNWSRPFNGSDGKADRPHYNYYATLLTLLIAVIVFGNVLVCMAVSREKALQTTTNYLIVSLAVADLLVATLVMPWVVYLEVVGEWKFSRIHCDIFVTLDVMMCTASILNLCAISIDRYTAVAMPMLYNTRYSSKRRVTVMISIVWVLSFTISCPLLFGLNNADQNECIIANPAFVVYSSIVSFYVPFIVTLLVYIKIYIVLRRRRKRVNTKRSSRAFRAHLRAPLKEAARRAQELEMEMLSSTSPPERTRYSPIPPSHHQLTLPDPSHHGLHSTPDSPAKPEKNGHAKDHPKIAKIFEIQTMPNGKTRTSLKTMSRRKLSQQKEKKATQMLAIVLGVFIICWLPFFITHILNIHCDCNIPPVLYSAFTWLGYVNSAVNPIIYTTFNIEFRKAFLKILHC

COC(=O)N1CCC(CN2CCC(CNC(=O)c3cccc4[nH]c(C(C)C)nc34)CC2)CC1 [TD-8954, 4-(4-{[(2-isopropyl-1H-benzoimidazole-4-carbonyl)amino]methyl}-piperidin-1-ylmethyl)piperidine-1-carboxylic acid methyl ester]
Ki (Human D1): > 1000 nM
inhibition at 1 µM (Human D1; [4]): -2%
effect on magnitude of inward human Nav1.5 sodium current (human Nav1.5): no effect
Ki (Rat 5-HT1B): > 1000 nM
Ki (Human NK2): > 1000 nM
% Inhibition of control (1 μM) (Human PDE4): −19%
IC50 (Human COX2): > 1000 nM
inhibition at 1 µM (Human COX2; [5]): -36%
pKi (SK+Ca channel): <6
% Inhibition of specific binding (1 μM) (SK+Ca channel; TD-8954 1 μM): −4%
Ki (Human 5-HT2C): > 1000 nM
pKi (Rat BB (non-selective)): <6
% Inhibition of specific binding (1 μM) (Rat BB (non-selective); TD-8954 1 μM): 4%
Ki (Human A1): > 1000 nM
inhibition at 1 µM (Human A1; [4]): -4%
dose producing a maximal response (healthy human subjects; single oral dose): 0.5 mg
lowest dose associated with a prokinetic effect (healthy human subjects; single oral dose): 0.1 mg
time to first bowel movement compared to placebo (healthy human subjects; single oral dose 0.1–20 mg, p < 0.05): statistically significant reduction
Ki (Human 5-HT5a): > 1000 nM
pKi [1]: <6
Ki (Human NK3): > 1000 nM
inhibition at 1 µM (Human NK3; [4]): -3%
pKi (Rat AMPA): <6
% Inhibition of specific binding (1 μM) (Rat AMPA; TD-8954 1 μM): −4%
Ki (Human D4.4): > 1000 nM
inhibition at 1 µM (Human D4.4; [4]): 6%
Ki (Bovine 5-HT1D): > 1000 nM
Ki (Human M1): > 1000 nM
Ki (Human D2S): > 1000 nM
inhibition at 1 µM (Human D2S; [4]): 6%
free plasma AUC0–24 [2]: 36.2 nM/h
free plasma Cmax [2]: 3.4 nM/h
Ki (Guinea pig H2): > 1000 nM
inhibition at 1 µM (Guinea pig H2; [4]): 4%
Ki (Human 5-HT2B): > 1000 nM
IC50 [3]: > 1000 nM
inhibition at 1 µM [3, 5]: 2%
Ki (Human CGRP): > 1000 nM
Ki (Human V1a): > 1000 nM
inhibition at 1 µM (Human V1a; [4]): 1%
Ki (Human VPAC2 (VIP2)): > 1000 nM
inhibition at 1 µM (Human VPAC2 (VIP2); [4]): -19%
pKi (Rat P2Y): <6
% Inhibition of specific binding (1 μM) (Rat P2Y; TD-8954 1 μM): 8%
pKi (Rat GABA (non-selective)): <6
% Inhibition of specific binding (1 μM) (Rat GABA (non-selective); TD-8954 1 μM): −6%
Ki (Human AT1): > 1000 nM
inhibition at 1 µM (Human AT1; [4]): 2%
Ki (Human CCK1 (CCKA)): > 1000 nM
Ki (Human β1): > 1000 nM
Ki (Human 5-HT transporter): > 1000 nM
lowest dose tested, significantly active on colonic transit (conscious guinea pigs): 0.03 mg/kg
dose associated with a relaxation response of 0.1 mm (rat esophagus): 0.23 mg/kg
